The text below walks through data of PubChem BioAssay AID624445 (Broad Institute, 2012).

Molecules are shown by their SMILES. Records with an inconclusive call do not appear. Activity calls are given as the source filed them.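 Rule for the calls: active = fitted curve drops past -35% activity change at a concentration under twice the top valid tested dose; inconclusive = no clear call, values can overlap the other calls; inactive = the rest, including effects in the wrong direction.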

The first assay relates to 26S proteasome chymotrypsin-like activity (human). The experiment in a line: cellular 26S proteasome inhibition check – cell-based, U2OS, Proteasome-Glo luminescence, dry powder, set 2, mechanism study for HSF1 activator project, dose response (AID 624445).
Settings: not given
For the compound `Cc1cccc(CSc2nsc(N)n2)c1`, the AC35 was 35.2 µM. Regarding `O=C(Nc1nc(SCc2ccccc2)ns1)C1CCC1`, the AC35 was 30.4 µM. Still for that read-out and setting: the result for `Nc1nc(SCc2ccccc2)ns1` reads 37.2 µM.

The assay is the same for the next values; noted with them: at 38 µM (top of the series).
Turning to `Cc1ccccc1CSc1nnc(N)s1`, the activity change, negative = inhibition was -25.3% (inactive). For `O=C(Nc1nc(SCc2ccccc2)ns1)C1CC=CCC1` (stereo unspecified), the activity change, negative = inhibition was -30.5% (inactive). Turning to `Cc1ccccc1CSc1nsc(N)n1`, the activity change, negative = inhibition is -21.8% (inactive). On the same count and under the same terms, the result for `Nc1nc(SCc2ccc(Cl)cc2Cl)ns1` reads 2.27% (inactive). Turning to `Nc1nc(S(=O)(=O)Cc2ccccc2)ns1`, the activity change, negative = inhibition is -17.1% (inactive). On the same count and under the same terms, in the case of `Nc1nc(SCc2ccc(F)cc2)ns1` it was -32.9% (inactive); in that of `Cc1ccccc1CSc1n[nH]c(N)n1`, 9.01% (inactive); in that of `Nc1nc(SCc2ccccc2Cl)ns1`, -20.5% (inactive).
